Test results reported in patent publication US20260034200A1, “TOLEROGENIC PEPTIDES” (University of Birmingham, priority 2022, published 2026).

Tests used:
[1] = system: peripheral blood mononuclear cells (PBMCs); assay: Human PBMC 3H-thymidine incorporation assay; assay type: cell-based; conditions: for positive response rate in 3H-thymidine incorporation assay: day 7, positive = SI>=3 and ccpm >1000
Experimental: Fresh blood samples were collected in CPDA-tubes. PBMCs from lymphocyte cones or fresh blood were isolated by Ficoll gradient centrifugation, frozen in 40% RPMI-1640, 50% heat inactivated fetal bovine serum (Sigma; F9665) and 10% DMSO and stored in liquid nitrogen until required. Thawed PBMCs were cultured at 1.5×10^6 cells/mL in X-VIVO-15 medium ((Lonza BE02-061Q) supplemented with 5% v/v human AB serum (Sigma H4522), 1× penicillin/streptomycin (Gibco 15140122)) either in the presence of GAD65 P10 30-mer antigen between 20-50 μg/mL or absence of antigen (negative control). Peptide response was measured by 3H radioactive thymidine incorporation on day 5 and day 7, by pulsing cell cultures with ^3H-thymidine (Perkin Elmer), as previously described (Mazza et al., 2002). Positive responses had corrected counts per minute (ccpm) counts >1000 and a stimulation index (SI)≥3, calculated as the fold-change of peptide stimulated condition over the negative control.
The workflow to design and validate tolerogenic apitopes (antigen processing independent T-cell epitopes) begins with identification of peptides predicted to bind to various HLA-DR molecules (pan-DR binders) using a combination of publicly available MHC-binding algorithms (FIG. 1A). In silico analyses identified 9 or 15 amino acid peptides within GAD65 that were extended to ˜30-mer peptides (FIG. 1B) to encourage antigen processing and presentation of a naturally processed epitope (Anderton et al., 2002). To test whether the designed 30-mer peptides could be correctly processed and preferentially induce immune responses in T1D patients, we screened for GAD65 30-mers responses in isolated peripheral blood mononuclear cells (PBMCs) from 20 non-diabetic healthy controls and 40 adults with T1D. […] On day 7 of the ^3H-thymidine incorporation assay, 20% (4/20) of healthy controls had shown a positive response to GAD65 P10 30-mer compared to 58% (23/40) of T1D patients (FIG. 1C).

[2] = system: GAD65 P10-specific T-cell hybridomas; assay: T-cell hybridoma screen with Priess cells as APCs, IL-2 ELISA; assay type: cell-based, mouse; conditions: hybridoma multi-clone 6 with HLA-DRB1*04:01 expressing APCs
Experimental: (§1) HLA-DR4 transgenic mice were injected subcutaneously with Complete Freund's Adjuvant (CFA) and 100 μg of GAD65 P10 30-mer. After 10 days, splenocytes were isolated and re-stimulated with GAD65 P10 30-mer for a further 4-5 days before fusion with hypoxanthine-aminopterin-thymidine (HAT) sensitive BW5147 cells using polyethylene glycol (PEG). Fused hybridomas were expanded in HAT selection media before antigen-specific screening. Co-cultures of 1×10^5 hybridomas and 2×10^5 Priess cells (an Epstein-Barr Virus (EBV) transformed DR4 (DRB1*04:01) expressing human cell line (ECACC 86052111)) as antigen presenting cells (APCs) were incubated for 48 h in a 96-well plate with peptide, whole GAD65 protein, or media only. Antigen-specific responses were determined by IL-2 secretion into culture supernatant by ELISA assay (BioLegend 431004). Hybridomas that proliferated in response to both GAD65 protein and GAD65 30-mer were single cell cloned by limiting dilution.
Six 15-mers that spanned the parent 30-mer amino acid sequence were generated by 3 amino acid shifts from the N-terminus toward the C-terminus.

HLA-DR4 transgenic mice = assay: Peptide immunogenicity in HLA-DR transgenic mice (immunisation); assay type: in vivo, mouse; conditions: HLA-DR4 transgenic mice (HLA-DRB1*04:01); data not shown
Experimental: as §1
Generation of hybridomas that respond to both the GAD65 protein and the P10 30-mer peptide means that these hybridomas can recognise naturally processed peptide presented by APCs—a property shown to be critical for successful peptide immunotherapy design (Anderton et al 2002).

DAAWGGGLLMSRKHKWKLSGVERANSVTWN [P10 30-mer]
average magnitude of the proliferative response ([1]; T1D patients vs healthy controls, Mann-Whitney p=0.0146): significantly increased | positive response rate in 3H-thymidine incorporation assay ([1]; T1D patients (23/40)): 58% | positive response rate in 3H-thymidine incorporation assay ([1]; non-diabetic healthy controls (4/20)): 20% | hybridoma IL-2 response [2]: could respond | response to immunisation (HLA-DR4 transgenic mice): responded well
